The values that follow are results of earlier work, collected in patent publication US20240065995A1, “INJECTABLE METHODS TO TREAT DEFICIENCIES IN GLUTATHIONE METABOLISM AND HOMOCYSTINURIA” (priority 2022, published 2024).

The conditions of this data set: glutathione in the bloodstream; background statement.

Regarding `N[C@@H](CCC(=O)N[C@@H](CS)C(=O)NCC(=O)O)C(=O)O` [Glutathione], the “half-life in the bloodstream” value is recorded as “under 2 minutes”.
